Article PMC1950744, “Transcription Termination Defective Mutants of Rho: Role of Different Functions of Rho in Releasing RNA from the Elongation Complex” (Journal of Molecular Biology, 2007)

Columns and labels:
[1] = target: T1, Rho (Escherichia coli, UniProt P0AG30, G324D); assay: UV cross-linking of [γ-32P]ATP, SDS-PAGE, hyperbolic fit; assay type: binding; conditions: read-out: Kd, app
T1 construct: full-length WT rho in pET21b (pRS96; NdeI/XhoI), C-terminal His-tag kept, expressed in E. coli BL21(DE3) (I382N in BL21SI), Ni-NTA and heparin-Sepharose; homo-hexamer; 419 residues natural length
T1 sequence (P0AG30 whole entry G324D): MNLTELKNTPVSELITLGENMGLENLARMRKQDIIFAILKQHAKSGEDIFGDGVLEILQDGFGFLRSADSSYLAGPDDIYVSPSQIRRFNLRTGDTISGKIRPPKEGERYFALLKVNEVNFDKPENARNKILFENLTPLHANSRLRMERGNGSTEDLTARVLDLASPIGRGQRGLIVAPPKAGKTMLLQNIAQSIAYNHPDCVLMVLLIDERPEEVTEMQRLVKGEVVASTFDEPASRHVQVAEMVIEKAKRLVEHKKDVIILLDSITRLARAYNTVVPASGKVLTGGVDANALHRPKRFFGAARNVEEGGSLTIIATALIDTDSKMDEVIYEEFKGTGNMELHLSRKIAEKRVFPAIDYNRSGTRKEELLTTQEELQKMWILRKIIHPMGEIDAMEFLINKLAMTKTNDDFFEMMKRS
From the text: (§1) UV cross-linking of [γ-32P]ATP, SDS-PAGE, hyperbolic fit on Rho

[2] = target: T2, Rho (Escherichia coli, UniProt P0AG30, G51V); assay: as above; assay type: binding; conditions: read-out: Kd, app
T2 construct: full-length WT rho in pET21b (pRS96; NdeI/XhoI), C-terminal His-tag kept, expressed in E. coli BL21(DE3) (I382N in BL21SI), Ni-NTA and heparin-Sepharose; homo-hexamer; 419 residues natural length
T2 sequence (P0AG30 whole entry G51V): as the sequence (P0AG30 whole entry G324D) above, with G51V, D324G counted along it
From the text: as §1

[3] = target: T3, Rho (Escherichia coli, UniProt P0AG30, I382N); assay: as above; assay type: binding; conditions: read-out: Kd, app
T3 construct: full-length WT rho in pET21b (pRS96; NdeI/XhoI), C-terminal His-tag kept, expressed in E. coli BL21(DE3) (I382N in BL21SI), Ni-NTA and heparin-Sepharose; homo-hexamer; 419 residues natural length
T3 sequence (P0AG30 whole entry I382N): as the sequence (P0AG30 whole entry G324D) above, with D324G, I382N counted along it
From the text: as §1

[4] = target: T4, Rho (Escherichia coli, UniProt P0AG30, N340S); assay: as above; assay type: binding; conditions: read-out: Kd, app
T4 construct: full-length WT rho in pET21b (pRS96; NdeI/XhoI), C-terminal His-tag kept, expressed in E. coli BL21(DE3) (I382N in BL21SI), Ni-NTA and heparin-Sepharose; homo-hexamer; 419 residues natural length
T4 sequence (P0AG30 whole entry N340S): as the sequence (P0AG30 whole entry G324D) above, with D324G, N340S counted along it
From the text: as §1

[5] = target: T5, Rho (Escherichia coli, UniProt P0AG30, P279S); assay: as above; assay type: binding; conditions: read-out: Kd, app
T5 construct: full-length WT rho in pET21b (pRS96; NdeI/XhoI), C-terminal His-tag kept, expressed in E. coli BL21(DE3) (I382N in BL21SI), Ni-NTA and heparin-Sepharose; homo-hexamer; 419 residues natural length
T5 sequence (P0AG30 whole entry P279S): as the sequence (P0AG30 whole entry G324D) above, with P279S, D324G counted along it
From the text: as §1

[6] = target: T6, Rho (Escherichia coli, UniProt P0AG30, Y274D); assay: as above; assay type: binding; conditions: read-out: Kd, app
T6 construct: full-length WT rho in pET21b (pRS96; NdeI/XhoI), C-terminal His-tag kept, expressed in E. coli BL21(DE3) (I382N in BL21SI), Ni-NTA and heparin-Sepharose; homo-hexamer; 419 residues natural length
T6 sequence (P0AG30 whole entry Y274D): as the sequence (P0AG30 whole entry G324D) above, with Y274D, D324G counted along it
From the text: as §1

[7] = system: T7, Nc1ncnc2c1ncn2[C@@H]1O[C@H](COP(=O)(O)OP(=O)(O)OP(=O)(O)O)[C@@H](O)[C@H]1O; assay: ATPase assay, Pi release by TLC, Lineweaver-Burk; assay type: biochemical, Escherichia coli; conditions: poly(C) 10 μM as cofactor, 5 nM Rho, 25 mM Tris-HCl pH 8.0, 50 mM KCl, 5 mM MgCl2, 1 mM DTT, 0.1 mg/ml BSA, 30 °C
T7 construct: full-length WT rho in pET21b (pRS96; NdeI/XhoI), C-terminal His-tag kept, expressed in E. coli BL21(DE3) (I382N in BL21SI), Ni-NTA and heparin-Sepharose; homo-hexamer; 419 residues natural length
From the text: ATPase assay, Pi release by TLC, Lineweaver-Burk on Rho

Compound	Kd [1]	Kd [2]	Kd [3]	Kd [4]	Kd [5]	Kd [6]	Km [7]
Nc1ncnc2c1ncn2[C@@H]1O[C@H](COP(=O)(O)OP(=O)(O)OP(=O)(O)O)[C@@H](O)[C@H]1O [ATP]	2.45 ± 0.15 µM	1.35 ± 0.26 µM	0.6 ± 0.1 µM	1.09 ± 0.12 µM	4.28 ± 0.54 µM	3.15 ± 0.26 µM	–
Rho (Escherichia coli K-12; Y80C)	–	–	–	–	–	–	43.2 ± 0.8 µM
